This test deals with T1, hSCN3A sodium channels (Homo sapiens, UniProt Q9NY46).
T1 construct: expressed in transfected cells
As to the kind of experiment: hSCN3A electrophysiology, Ionworks Quattro automated platform (Table C). It counts as cell-based. Conditions: for inhibition at 3 µM: 3 μM compound, read-out: SCN3A % INHIB HTS IWQ 3 μM; for inhibition at 10 µM: 10 μM compound, read-out: SCN3A % INHIB HTS IWQ 10 μM. The gist of the method:
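HEK cells stably expressing hSCN3A were recorded in perforated-patch mode with 100 μg/ml amphotericin on Ionworks Quattro. The protocol used an inactivating step, a brief hyperpolarized partial recovery, then a depolarized test step. Inhibition was taken from current amplitude before versus after compound addition.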

T1 sequence (Q9NY46 whole entry): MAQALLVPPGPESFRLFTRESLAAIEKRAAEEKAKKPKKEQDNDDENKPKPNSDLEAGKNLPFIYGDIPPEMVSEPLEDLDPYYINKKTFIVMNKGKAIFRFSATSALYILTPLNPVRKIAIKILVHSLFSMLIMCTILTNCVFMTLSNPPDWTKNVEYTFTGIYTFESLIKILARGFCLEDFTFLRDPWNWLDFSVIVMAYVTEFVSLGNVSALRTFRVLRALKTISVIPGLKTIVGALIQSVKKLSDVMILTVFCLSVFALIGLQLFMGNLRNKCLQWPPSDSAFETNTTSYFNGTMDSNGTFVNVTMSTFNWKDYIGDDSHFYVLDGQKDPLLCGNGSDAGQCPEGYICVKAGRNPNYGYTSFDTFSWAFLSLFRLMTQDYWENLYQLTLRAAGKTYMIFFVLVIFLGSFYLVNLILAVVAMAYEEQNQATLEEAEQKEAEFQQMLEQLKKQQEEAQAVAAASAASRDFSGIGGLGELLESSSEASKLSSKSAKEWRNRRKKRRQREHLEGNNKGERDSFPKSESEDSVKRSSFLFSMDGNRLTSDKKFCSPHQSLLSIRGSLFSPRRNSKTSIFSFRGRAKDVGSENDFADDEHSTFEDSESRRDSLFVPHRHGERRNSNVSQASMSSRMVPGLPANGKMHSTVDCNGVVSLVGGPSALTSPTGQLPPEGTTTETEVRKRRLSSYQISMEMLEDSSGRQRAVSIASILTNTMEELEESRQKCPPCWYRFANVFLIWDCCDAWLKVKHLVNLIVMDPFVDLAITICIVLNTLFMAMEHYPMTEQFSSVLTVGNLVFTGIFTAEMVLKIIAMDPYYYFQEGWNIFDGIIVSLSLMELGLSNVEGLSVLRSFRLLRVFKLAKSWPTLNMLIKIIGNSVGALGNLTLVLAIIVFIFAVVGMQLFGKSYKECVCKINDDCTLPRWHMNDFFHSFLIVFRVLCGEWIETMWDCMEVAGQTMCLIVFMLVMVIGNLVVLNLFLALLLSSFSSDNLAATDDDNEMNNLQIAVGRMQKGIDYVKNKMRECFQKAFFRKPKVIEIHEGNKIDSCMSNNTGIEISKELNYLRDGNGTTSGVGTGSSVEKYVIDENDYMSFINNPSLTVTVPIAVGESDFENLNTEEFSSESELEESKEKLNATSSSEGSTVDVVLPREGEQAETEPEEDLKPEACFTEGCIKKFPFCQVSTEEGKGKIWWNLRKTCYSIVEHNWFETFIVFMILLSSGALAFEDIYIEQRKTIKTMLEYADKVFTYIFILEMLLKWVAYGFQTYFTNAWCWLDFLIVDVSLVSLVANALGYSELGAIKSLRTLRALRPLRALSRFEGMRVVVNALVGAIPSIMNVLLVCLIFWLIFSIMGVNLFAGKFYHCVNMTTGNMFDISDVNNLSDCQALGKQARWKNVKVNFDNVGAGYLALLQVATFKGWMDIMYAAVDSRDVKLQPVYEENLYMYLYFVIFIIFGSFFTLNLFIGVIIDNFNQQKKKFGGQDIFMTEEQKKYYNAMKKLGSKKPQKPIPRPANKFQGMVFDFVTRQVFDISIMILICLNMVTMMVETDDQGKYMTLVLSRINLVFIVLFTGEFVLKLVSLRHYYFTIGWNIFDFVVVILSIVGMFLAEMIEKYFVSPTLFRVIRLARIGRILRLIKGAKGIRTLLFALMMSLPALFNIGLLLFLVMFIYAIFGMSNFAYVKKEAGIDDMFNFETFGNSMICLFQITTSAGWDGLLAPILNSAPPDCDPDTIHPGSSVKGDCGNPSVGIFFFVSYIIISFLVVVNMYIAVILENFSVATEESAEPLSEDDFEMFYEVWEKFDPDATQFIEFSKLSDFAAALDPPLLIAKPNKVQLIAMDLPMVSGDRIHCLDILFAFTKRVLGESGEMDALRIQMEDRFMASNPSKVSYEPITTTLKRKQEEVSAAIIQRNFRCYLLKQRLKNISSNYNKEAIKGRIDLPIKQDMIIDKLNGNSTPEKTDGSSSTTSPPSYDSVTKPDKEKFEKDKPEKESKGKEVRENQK

In the case of `O=C(c1ccc(S(=O)(=O)Nc2nccs2)cc1)N1CCCC(COc2ccc(F)cc2)C1` (stereo not shown) [Example 264, 4-({3-[(4-Fluorophenoxy)methyl]piperidin-1-yl}carbonyl)-N-1,3-thiazol-2-yl-benzenesulfonamide], the inhibition at 3 µM was 16.9% and the inhibition at 10 µM is 14.8%.
`CC(NC(=O)c1ccc(S(=O)(=O)Nc2nccs2)cc1)c1ccccc1Cl` (stereo not shown) [Example 143, N-[1-(2-chlorophenyl)ethyl]-4-[(1,3-thiazol-2-ylamino)sulfonyl]benzamide]: the inhibition at 3 µM was found to be 16% and the inhibition at 10 µM worked out at 32%.
On the same counts, the results for `COc1cccc(C2CCCN2C(=O)c2ccc(S(=O)(=O)Nc3nccs3)cc2)c1` (stereo not shown) [Example 273, 4-{[2-(3-Methoxyphenyl)pyrrolidin-1-yl]carbonyl}-N-1,3-thiazol-2-yl-benzenesulfonamide] are 4.82% and 2.72%.
Regarding `COc1ccc(C2(NC(=O)c3ccc(S(=O)(=O)Nc4nccs4)cc3)CC2)cc1` [Example 160, N-[1-(4-methoxyphenyl)cyclopropyl]-4-[(1,3-thiazol-2-ylamino)sulfonyl]benzamide], the inhibition at 3 µM turned out to be 15.6% and the inhibition at 10 µM worked out at 14.8%.
`COc1ccc(CC2COCCN(C(=O)c3ccc(S(=O)(=O)Nc4nccs4)cc3)C2)cc1F` (stereo not shown) [Example 199, 4-{[6-(3-Fluoro-4-methoxybenzyl)-1,4-oxazepan-4-yl]carbonyl}-N-1,3-thiazol-2-yl-benzenesulfonamide]: the inhibition at 3 µM stood at 10.2% and the inhibition at 10 µM is 7.42%.
Taken in the same sequence, the figures for `Cc1ccnc(NC(=O)c2ccc(S(=O)(=O)Nc3nccs3)cc2)c1` [Example 181, N-(4-methylpyridin-2-yl)-4-[(1,3-thiazol-2-ylamino)sulfonyl]benzamide] were -12.2% and 11.2%.
Turning to `O=C(c1ccc(S(=O)(=O)Nc2nccs2)cc1)N1CCCC(Cc2cncnc2)C1` (stereo not shown) [Example 272, 4-{[3-(Pyrimidin-5 ylmethyl)piperidin-1-yl]carbonyl}-N-1,3-thiazol-2-yl-benzenesulfonamide], the inhibition at 3 µM amounted to 1.88% and the inhibition at 10 µM worked out at 8.31%.
With `O=C(N[C@H]1CCC[C@@H]1c1ccccc1)c1ccc(S(=O)(=O)Nc2nccs2)cc1` [Example 131, N-[(1S,2R)-2-phenylcyclopentyl]-4-[(1,3-thiazol-2-ylamino)sulfonyl]benzamide], the inhibition at 3 µM was 27.2% and the inhibition at 10 µM amounted to 13.1%.
Turning to `Cc1ccc(C)c(C2CCCN2C(=O)c2ccc(S(=O)(=O)Nc3nccs3)cc2)c1` (stereo not shown) [Example 202, 4-{[2-(2,5-Dimethylphenyl)pyrrolidin-1-yl]carbonyl}-N-1,3-thiazol-2-yl-benzenesulfonamide], the inhibition at 3 µM was 15.8% and the inhibition at 10 µM amounted to 13.7%.
As for `O=C(NCc1c(F)cccc1Cl)c1ccc(S(=O)(=O)Nc2nccs2)cc1` [Example 86, N-(2-chloro-6-fluorobenzyl)-4-[(1,3-thiazol-2-ylamino)sulfonyl]benzamide], the inhibition at 3 µM was 22.3% and the inhibition at 10 µM worked out at 26.3%.
Taken in the same sequence, the figures for `O=C(NCCc1ccccc1F)c1ccc(S(=O)(=O)Nc2nccs2)cc1` [Example 77, N-[2-(2-fluorophenyl)ethyl]-4-[(1,3-thiazol-2-ylamino)sulfonyl]benzamide] were 16.6% and 27.9%.
For the compound `O=C(NC(CO)c1ccccc1)c1ccc(S(=O)(=O)Nc2nccs2)cc1` (stereo not shown) [Example 57, N-(2-hydroxy-1-phenylethyl)-4-[(1,3-thiazol-2-ylamino)sulfonyl]benzamide], the inhibition at 3 µM stood at 25.2% and the inhibition at 10 µM was found to be 47.8%.
Regarding `COc1ccc(CC2CCCN2C(=O)c2ccc(S(=O)(=O)Nc3nccs3)cc2)cc1` (stereo not shown) [Example 206, 4-{[2-(4-Methoxybenzyl)pyrrolidin-1-yl]carbonyl}-N-1,3-thiazol-2-yl-benzenesulfonamide], the inhibition at 3 µM is 4.17% and the inhibition at 10 µM was 16.7%.
In the case of `Cc1ccccc1O[C@@H]1CCN(C(=O)c2ccc(S(=O)(=O)Nc3nccs3)cc2)C1` [Example 204, 4-{[(3R)-3-(2-methylphenoxy)pyrrolidin-1-yl]carbonyl}-N-1,3-thiazol-2-yl-benzenesulfonamide], the inhibition at 3 µM is 18.1% and the inhibition at 10 µM turned out to be 16.2%.
With `O=C(NCc1ccccc1)c1ccc(S(=O)(=O)Nc2nccs2)cc1` [Example 171, N-benzyl-4-[(1,3-thiazol-2-ylamino)sulfonyl]benzamide], the inhibition at 3 µM amounted to 39.5% and the inhibition at 10 µM worked out at 52.8%.
Regarding `Cc1ccc(CNC(=O)c2ccc(S(=O)(=O)Nc3nccs3)cc2)cc1` [Example 98, N-(4-methylbenzyl)-4-[(1,3-thiazol-2-ylamino)sulfonyl]benzamide], the inhibition at 3 µM turned out to be 28.1% and the inhibition at 10 µM turned out to be 36.6%.
For the compound `Cc1ncccc1OCC1CN(C(=O)c2ccc(S(=O)(=O)Nc3nccs3)cc2)CCO1` (stereo not shown) [Example 243, 4-[(2-{[(2-Methylpyridin-3-yl)oxy]methyl}morpholin-4-yl)carbonyl]-N-1,3-thiazol-2-yl-benzenesulfonamide], the inhibition at 3 µM amounted to 15.3% and the inhibition at 10 µM was 14.7%.
On the same counts, the results for `COc1cccc(C2CCCCN2C(=O)c2ccc(S(=O)(=O)Nc3nccs3)cc2)c1` (stereo not shown) [Example 201, 4-{[2-(3-Methoxyphenyl)piperidin-1-yl]carbonyl}-N-1,3-thiazol-2-yl-benzenesulfonamide] are 13.7% and -0.98%.
Consider `O=C(NCc1cc(F)ccc1C(F)(F)F)c1ccc(S(=O)(=O)Nc2nccs2)cc1` [Example 81, N-[5-fluoro-2-(trifluoromethyl)benzyl]-4-[(1,3-thiazol-2-ylamino)sulfonyl]benzamide], for which the inhibition at 3 µM was 34.7% and the inhibition at 10 µM was 65.7%.
`COc1ccccc1CC1(NC(=O)c2ccc(S(=O)(=O)Nc3nccs3)cc2)CC1` [Example 157, N-[1-(2-methoxybenzyl)cyclopropyl]-4-[(1,3-thiazol-2-ylamino)sulfonyl]benzamide]: the inhibition at 3 µM was 11.3% and the inhibition at 10 µM was 15.3%.
On the same counts, the results for `CN(C(=O)c1ccc(S(=O)(=O)Nc2nccs2)cc1)C(Cc1ccccc1)c1ccccc1` (stereo not shown) [Example 251, N-(1,2-diphenylethyl)-N-methyl-4-[(1,3-thiazol-2-ylamino)sulfonyl]benzamide] are 19.9% and 0.8%.
Take `O=C(N[C@H](CO)Cc1ccccc1)c1ccc(S(=O)(=O)Nc2nccs2)cc1` [Example 182, N-[(1S)-1-benzyl-2-hydroxyethyl]-4-[(1,3-thiazol-2-ylamino)sulfonyl]benzamide]: the inhibition at 3 µM turned out to be 4.7% and the inhibition at 10 µM was found to be 4.83%.
Take `O=C(c1ccc(S(=O)(=O)Nc2nccs2)cc1)N1CCC(COCC2CC2)C1` (stereo not shown) [Example 269, 4-({3-[(Cyclopropylmethoxy)methyl]pyrrolidin-1-yl}carbonyl)-N-1,3-thiazol-2-yl-benzenesulfonamide]: the inhibition at 3 µM was 0.37% and the inhibition at 10 µM came out at 16.5%.
As to `Cc1cccc(CNC(=O)c2ccc(S(=O)(=O)Nc3nccs3)cc2)c1C` [Example 82, N-(2,3-dimethylbenzyl)-4-[(1,3-thiazol-2-ylamino)sulfonyl]benzamide], the inhibition at 3 µM came out at 29.7% and the inhibition at 10 µM was 63%.
On the same counts, the results for `O=C(N[C@@H]1CCC[C@@H]1c1ccc(F)cc1)c1ccc(S(=O)(=O)Nc2nccs2)cc1` [Example 132, N-[(1R,2R)-2-(4-fluorophenyl)cyclopentyl]-4-[(1,3-thiazol-2-ylamino)sulfonyl]benzamide] are 19.7% and 15.3%.
Consider `O=C(NCCOc1ccccc1F)c1ccc(S(=O)(=O)Nc2nccs2)cc1` [Example 167, N-[2-(2-fluorophenoxy)ethyl]-4-[(1,3-thiazol-2-ylamino)sulfonyl]benzamide], for which the inhibition at 3 µM was found to be 30.8% and the inhibition at 10 µM was found to be 43%.
In the case of `COc1ccc(CC2(NC(=O)c3ccc(S(=O)(=O)Nc4nccs4)cc3)CC2)cc1` [Example 162, N-[1-(4-methoxybenzyl)cyclopropyl]-4-[(1,3-thiazol-2-ylamino)sulfonyl]benzamide], the inhibition at 3 µM worked out at 28% and the inhibition at 10 µM came to 13.7%.
Turning to `CN(CC1Cc2ccccc2O1)C(=O)c1ccc(S(=O)(=O)Nc2nccs2)cc1` (stereo not shown) [Example 274, N-(2,3-dihydro-1-benzofuran-2-ylmethyl)-N-methyl-4-[(1,3-thiazol-2-ylamino)sulfonyl]benzamide], the inhibition at 3 µM was found to be 14.6% and the inhibition at 10 µM was determined as 19.6%.
Consider `O=C(c1ccc(S(=O)(=O)Nc2nccs2)cc1)N1CCCCC1COc1ccccc1` (stereo not shown) [Example 224, 4-{[2-(Phenoxymethyl)piperidin-1-yl]carbonyl}-N-1,3-thiazol-2-yl-benzenesulfonamide], for which the inhibition at 3 µM is 3.47% and the inhibition at 10 µM came to 9.34%.
As to `O=C(c1ccc(S(=O)(=O)Nc2nccs2)cc1)N1CCCC1c1ccccc1F` (stereo not shown) [Example 281, 4-{[2-(2-Fluorophenyl)pyrrolidin-1-yl]carbonyl}-N-1,3-thiazol-2-yl-benzenesulfonamide], the inhibition at 3 µM was 10.2% and the inhibition at 10 µM was determined as 28.9%.
`O=C(c1ccc(S(=O)(=O)Nc2nccs2)cc1)N1CCCC1c1ccccn1` (stereo not shown) [Example 283, 4-[(2-Pyridin-2-ylpyrrolidin-1-yl)carbonyl]-N-1,3-thiazol-2-ylbenzenesulfonamide]: the inhibition at 3 µM is -1.98% and the inhibition at 10 µM was found to be 0.98%.
Taken in the same sequence, the figures for `O=C(c1ccccc1)C1CCCN(C(=O)c2ccc(S(=O)(=O)Nc3nccs3)cc2)C1` (stereo not shown) [Example 253, 4-[(3-Benzoylpiperidin-1-yl)carbonyl]-N-1,3-thiazol-2-yl-benzenesulfonamide] were 5.99% and 31.3%.
